# From patent US20080176810A1, “Use of 3, 4', 5-Trihydroxy-Stilbene-3-Beta-D-glucoside in Prepartion of Medicines For Treating and/or Preventing Ischemic Heart Disease” (SHENZHEN NEPTUNUS PHARMACEUTICAL CO., LTD., priority 2004, published 2008)
# Test system: anesthetized dogs
# Assay: Myocardial oxygen consumption, coronary flow, cardiac output in anesthetized dogs, iv
# Format: in vivo
# Conditions: c3-c8 5,15,30,60,90,120 min after administration; for coronary artery resistance, x ± s / myocardial oxygen consumption, x ± s / total peripheral resistance (TPR), x ± s / cardiac output, x ± s / myocardial oxygen uptake, x ± s: c2 0 min before
# Procedure: Isosorbide Dinitrate control group were medicated by continuous intravenous infusion and other groups by intravenous injection.
# The animals were anesthetised with 3% pentobarbital sodium iv at the dose of 30 mg/kg. Tracheal intubation was performed and SC-M5 anesthesia respirator (manufactured by Shanghai Medical Instrument Factory, frequency: 16˜18 per min, tidal volume: 350˜550 ml) was connected. Bilateral femoral arteries were separated for blood sampling and analyzing and measurement of mean blood pressure. Thoracotomy at the fourth intercostal space was performed to expose the heart and to open the pericardium to make pericardial hammock. Ascending aortic root and upper part of left branch of anterior descending coronary artery were dissociated to put respectively probes of electromagnetic flowmeter (MFV-1100/1200, made by Japanese Nihon Kohden Company) to measure cardiac output and coronary artery flow rate. Right jugular vein was separated for insertion of a cardiac catheter that was guided into coronary venous sinuses before fixation. Synchronously, blood was sampled by drawing from coronary sinus and femoral artery (0.5% heparin was added for anticoagulation). pO2 and pH were detected with a blood gas analyzer (DH-1830 Blood Gas Acid-base Analyze, Nanjing Ananalysis Apparatus Factor) and the values were converted to artery and venous oxygen content. After intravenous infusion of control solvent or the drug, constant infusion for all groups was completed with an electronic constant flow pump (SH-88AB Controllable Intravenous Injector made by Quanzhou Lizhong Electronic Medical Instrument Factory). Both artery and venous blood gas before administration or 5, 15, 30, 60, 90 and 120 min after administration was analyzed and mean blood pressure and cardiac output at 0, 5, 15, 30, 60, 90 and 120 min were observed.
# Myocardial oxygen consumption(ml/min/100 g)=coronary flow ml/min/100 g×artery oxygen−coronary sinus oxygen ml %).
# Myocardial oxygen uptake (%)=(artery oxygen ml %−coronary sinus oxygen ml %)/artery oxygen ml %
# Total peripheral resistance of general circulation(dyn·s·cm−5)=mean arterial blood pressure[MAP(KPa)]×80/cardiac output[CO(L/min)]=mean arterial blood pressure[MAP(mmHg)]×10.6/cardiac output[CO(L/min)]
# Coronary resistance[Kpa/ml/min]=mean arterial blood pressure[MAP(KPa)]/coronary artery flow.
# [1] = TSG 2.5 mg/kg iv, 0 min, before administration
# [2] = TSG 2.5 mg/kg iv, 5 min after administration
# [3] = TSG 2.5 mg/kg iv, 15 min after administration
# [4] = TSG 2.5 mg/kg iv, 30 min after administration
# [5] = TSG 2.5 mg/kg iv, 60 min after administration
# [6] = TSG 2.5 mg/kg iv, 90 min after administration
# [7] = TSG 2.5 mg/kg iv, 120 min after administration
# [8] = TSG 2.5 mg/kg iv, before administration, 0 min
# [9] = TSG 5 mg/kg iv, 0 min, before administration
# [10] = TSG 5 mg/kg iv, 5 min after administration
# [11] = TSG 5 mg/kg iv, 15 min after administration
# [12] = TSG 5 mg/kg iv, 30 min after administration
# [13] = TSG 5 mg/kg iv, 60 min after administration
# [14] = TSG 5 mg/kg iv, 90 min after administration
# [15] = TSG 5 mg/kg iv, 120 min after administration
substance,measurement,setting,value
"3,4′,5-trihydroxy-stilbene-3-β-D-glucoside [TSG]","coronary artery resistance, x ± s",[1],0.268 ± 0.050 Kpa/ml/min
same,"myocardial oxygen consumption, x ± s",[1],214.6 ± 5.24 mL/min.100 g^−1
same,"total peripheral resistance (TPR), x ± s",[1],888.8 ± 200.9 dyn·s·cm^−5
same,"cardiac output, x ± s",[2],1.09 ± 0.12 L/min
same,"coronary artery resistance, x ± s",[2],0.269 Kpa/ml/min
same,"myocardial oxygen consumption, x ± s",[2],215.5 ± 8.73 mL/min.100 g^−1
same,"myocardial oxygen uptake, x ± s",[2],77.4%
same,"total peripheral resistance (TPR), x ± s",[2],873.5 ± 210.3 dyn·s·cm^−5
same,"cardiac output, x ± s",[3],1.09 ± 0.14 L/min
same,"coronary artery resistance, x ± s",[3],0.266 ± 0.049 Kpa/ml/min
same,"total peripheral resistance (TPR), x ± s",[3],888.7 ± 208.8 dyn·s·cm^−5
same,"cardiac output, x ± s",[4],1.10 ± 0.13 L/min
same,"coronary artery resistance, x ± s",[4],0.257 ± 0.054 Kpa/ml/min
same,"myocardial oxygen consumption, x ± s",[4],218.2 ± 6.85 mL/min.100 g^−1
same,"myocardial oxygen uptake, x ± s",[4],74.2 ± 5.11%
same,"total peripheral resistance (TPR), x ± s",[4],869.1 ± 249.3 dyn·s·cm^−5
same,"cardiac output, x ± s",[5],1.11 ± 0.13 L/min
same,"coronary artery resistance, x ± s",[5],0.261 ± 0.051 Kpa/ml/min
same,"myocardial oxygen consumption, x ± s",[5],218.0 ± 8.95 mL/min.100 g^−1
same,"myocardial oxygen uptake, x ± s",[5],73.1 ± 6.16%
same,"total peripheral resistance (TPR), x ± s",[5],890.2 ± 240.3 dyn·s·cm^−5
same,"coronary artery resistance, x ± s",[6],0.267 ± 0.054 Kpa/ml/min
same,"myocardial oxygen consumption, x ± s",[6],214.1 ± 8.39 mL/min.100 g^−1
same,"myocardial oxygen uptake, x ± s",[6],75.0 ± 6.24%
same,"total peripheral resistance (TPR), x ± s",[6],877.6 ± 225.1 dyn·s·cm^−5
same,"cardiac output, x ± s",[7],1.10 ± 0.14 L/min
same,"coronary artery resistance, x ± s",[7],0.271 ± 0.055 Kpa/ml/min
same,"total peripheral resistance (TPR), x ± s",[7],868.6 ± 221.8 dyn·s·cm^−5
same,"cardiac output, x ± s",[8],1.06 ± 0.13 L/min
same,"myocardial oxygen uptake, x ± s",[8],76.9 ± 5.50%
same,"cardiac output, variation %",[2],2.50 ± 2.42%
same,"coronary artery resistance, variation %",[2],0.81%
same,"myocardial oxygen consumption, variation %",[2],0.40 ± 3.16%
same,"myocardial oxygen uptake, variation %",[2],0.72%
same,"total peripheral resistance (TPR), variation %",[2],−1.89 ± 6.74%
same,"cardiac output, variation %",[3],1.97 ± 1.55%
same,"coronary artery resistance, variation %",[3],−0.34 ± 2.36%
same,"total peripheral resistance (TPR), variation %",[3],−0.10 ± 4.21%
same,"cardiac output, variation %",[4],3.88 ± 3.48%
same,"coronary artery resistance, variation %",[4],−3.82 ± 9.83%
same,"myocardial oxygen consumption, variation %",[4],1.66 ± 1.48%
same,"myocardial oxygen uptake, variation %",[4],−3.47 ± 1.59%
same,"total peripheral resistance (TPR), variation %",[4],−3.22 ± 9.65%
same,"cardiac output, variation %",[5],4.41 ± 1.40%
same,"coronary artery resistance, variation %",[5],−2.48 ± 8.17%
same,"myocardial oxygen consumption, variation %",[5],1.57 ± 2.94%
same,"myocardial oxygen uptake, variation %",[5],−4.99 ± 3.01 %
same,"total peripheral resistance (TPR), variation %",[5],−0.56 ± 7.52%
same,"cardiac output, variation %",[6],4.40 ± 1.64%
same,"coronary artery resistance, variation %",[6],−0.24 ± 10.72%
same,"myocardial oxygen consumption, variation %",[6],−0.25 ± 2.84%
same,"myocardial oxygen uptake, variation %",[6],−2.58 ± 2.67 %
same,"total peripheral resistance (TPR), variation %",[6],−1.52 ± 9.42%
same,"cardiac output, variation %",[7],3.23 ± 2.57%
same,"coronary artery resistance, variation %",[7],1.19 ± 6.55%
same,"total peripheral resistance (TPR), variation %",[7],−2.58 ± 7.26%
same,"coronary artery resistance, x ± s",[9],0.299 ± 0.029 Kpa/ml/min
same,"myocardial oxygen consumption, x ± s",[9],211.4 ± 4.05 mL/min.100 g^−1
same,"total peripheral resistance (TPR), x ± s",[9],906.3 ± 193.9 dyn·s·cm^−5
same,"cardiac output, x ± s",[10],1.13 ± 0.12 L/min
same,"coronary artery resistance, x ± s",[10],0.308 Kpa/ml/min
same,"myocardial oxygen consumption, x ± s",[10],210.4 ± 6.48 mL/min.100 g^−1
same,"myocardial oxygen uptake, x ± s",[10],79.6%
same,"total peripheral resistance (TPR), x ± s",[10],897.1 ± 184.7 dyn·s·cm^−5
same,"cardiac output, x ± s",[11],1.13 ± 0.13 L/min
same,"coronary artery resistance, x ± s",[11],0.305 ± 0.029 Kpa/ml/min
same,"total peripheral resistance (TPR), x ± s",[11],916.6 ± 186.2 dyn·s·cm^−5
same,"cardiac output, x ± s",[12],1.15 ± 0.14 L/min
same,"coronary artery resistance, x ± s",[12],0.299 ± 0.026 Kpa/ml/min
same,"myocardial oxygen consumption, x ± s",[12],210.2 ± 8.65 mL/min.100 g^−1
same,"myocardial oxygen uptake, x ± s",[12],74.8 ± 5.66%
same,"total peripheral resistance (TPR), x ± s",[12],915.2 ± 199.9 dyn·s·cm^−5
same,"cardiac output, x ± s",[13],1.16 ± 0.14 L/min
same,"coronary artery resistance, x ± s",[13],0.288 ± 0.026 Kpa/ml/min
same,"myocardial oxygen consumption, x ± s",[13],212.9 ± 7.2 mL/min.100 g^−1
same,"myocardial oxygen uptake, x ± s",[13],74.5 ± 6.05%
same,"total peripheral resistance (TPR), x ± s",[13],907.8 ± 194.0 dyn·s·cm^−5
same,"cardiac output, x ± s",[14],1.16 ± 0.13 L/min
same,"coronary artery resistance, x ± s",[14],0.287 ± 0.028 Kpa/ml/min
same,"myocardial oxygen consumption, x ± s",[14],209.6 ± 9.01 mL/min.100 g^−1
same,"myocardial oxygen uptake, x ± s",[14],75.1 ± 6.48%
same,"total peripheral resistance (TPR), x ± s",[14],891.7 ± 188.6 dyn·s·cm^−5
same,"cardiac output, x ± s",[15],1.14 ± 0.13 L/min
same,"coronary artery resistance, x ± s",[15],0.287 ± 0.031 Kpa/ml/min
same,"total peripheral resistance (TPR), x ± s",[15],881.8 ± 188.9 dyn·s·cm^−5
